Laboratory results: patent publication US6875761B2 (Eisai Co., Ltd., priority 1997, dated 2005)
Structures can show the parent of a compound that is named as a salt. Where two headings read alike, the source gives them in different places.

Assays:
[1] = molecular target: T1, serotonin 1A receptor (Rattus norvegicus, UniProt P19327); assay: Binding test on [3H] 8-hydroxy-dipropylaminotetralin, hippocampus receptor fraction; set-up: species or system SD rats
T1 construct: To the receptor fraction of the hippocampus were added a test compound and 0.5 nM of [^3H]; 8-hydroxy-dipropylaminotetralin; from tissue; host or cells: rat hippocampus membrane fraction
T1 sequence (P19327 1-422): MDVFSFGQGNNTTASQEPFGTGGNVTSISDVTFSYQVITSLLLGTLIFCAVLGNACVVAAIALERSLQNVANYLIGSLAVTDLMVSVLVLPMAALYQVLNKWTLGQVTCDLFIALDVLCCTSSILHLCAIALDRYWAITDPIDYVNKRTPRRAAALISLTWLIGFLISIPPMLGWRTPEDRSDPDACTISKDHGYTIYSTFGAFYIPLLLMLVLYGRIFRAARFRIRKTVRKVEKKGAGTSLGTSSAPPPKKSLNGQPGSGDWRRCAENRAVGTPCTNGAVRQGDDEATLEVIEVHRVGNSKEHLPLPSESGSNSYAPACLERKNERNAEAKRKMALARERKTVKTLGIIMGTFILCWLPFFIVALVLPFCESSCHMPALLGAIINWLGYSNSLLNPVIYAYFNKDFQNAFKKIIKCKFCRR

[2] = molecular target: T2, serotonin 2 receptor (Rattus norvegicus, UniProt P14842); assay: Binding test on [3H] ketanserin, cerebral cortex receptor fraction; set-up: species or system SD rats; details: 0.3 nM [3H] ketanserin, 37° C. 15 min, read-out: 5HT2
T2 construct: To the receptor fraction of the cerebral cortex were added a test compound and 0.3 nM of [^3H] ketanserin; from tissue; host or cells: rat cerebral cortex membrane fraction
T2 sequence (P14842 whole entry): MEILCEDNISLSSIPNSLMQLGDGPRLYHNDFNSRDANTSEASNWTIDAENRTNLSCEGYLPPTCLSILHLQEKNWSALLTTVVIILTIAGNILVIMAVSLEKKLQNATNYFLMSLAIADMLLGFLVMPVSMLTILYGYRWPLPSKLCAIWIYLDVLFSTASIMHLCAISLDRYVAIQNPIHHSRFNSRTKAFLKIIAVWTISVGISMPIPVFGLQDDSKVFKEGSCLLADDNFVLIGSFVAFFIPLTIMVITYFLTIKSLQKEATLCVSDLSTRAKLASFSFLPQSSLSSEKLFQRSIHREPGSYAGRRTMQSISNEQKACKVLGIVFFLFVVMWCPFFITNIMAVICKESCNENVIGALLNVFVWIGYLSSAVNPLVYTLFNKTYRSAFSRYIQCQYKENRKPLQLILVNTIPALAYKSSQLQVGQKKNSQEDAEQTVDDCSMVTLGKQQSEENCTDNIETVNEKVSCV

[3] = rat hippocampus receptor fraction, 0.5 nM [3H] 8-OH-DPAT, room temperature 30 min, read-out: 5HT1

Row | SMILES | Ki [1, 3] | Ki [2] | Ki [1]
1 | CCN1CCN(c2nc(-c3ccc4c(c3)OCO4)cc3ccccc23)CC1 [Example 46, 3-(3,4-Methylenedioxyphenyl)-1-(4-Ethylpiperazin-1-Yl)Isoquinoline Hydrochloride] | 58 nM | 12.7 nM | –
2 | CCN1CCN(c2nc(-c3ccc(OCC(C)=O)cc3)cc3ccccc23)CC1 [Example 47, 1-(1-Ethylpiperazin-4-Yl)-3-(4-Acetonyloxyphenyl)Isoquinoline] | 25.3 nM | 2.6 nM | –
3 | CCN1CCN(c2nc(-c3ccc(OCCCNC(C)=O)cc3)cc3ccccc23)CC1 [Example 50, 3-[4-(3-Acetamidepropoxy)Phenyl]-1-(4-Ethylpiperazin-1-Yl)Isoquinoline Hydrochloride] | 25.2 nM | 21.9 nM | –
4 | CCN1CCN(c2nc(-c3ccc(OCC#N)cc3)cc3ccccc23)CC1 [Example 51, 3-(4-Cyanomethoxyphenyl)-1-(4-Ethylpiperazin-1-Yl)Isoquinoline Hydrochloride] | 103 nM | 1.87 nM | –
5 | CCN1CCN(c2nc(-c3ccc(OCCCC#N)cc3)cc3ccccc23)CC1 [Example 53, 3-[4-(3-Cyanopropoxy)Phenyl]-1-(4-Ethylpiperazin-1-Yl)Isoquinoline Hydrochloride] | 61.2 nM | 1.78 nM | –
6 | CCN1CCN(c2nc(-c3ccc(OCCCSC)cc3)cc3ccccc23)CC1 [Example 54, 3-[4-(3-Methylthiopropoxy)Phenyl]-1-(4-Ethylpiperazin-1-Yl)Isoquinoline Hydrochloride] | 62.1 nM | 4.9 nM | –
7 | CCN1CCN(c2nc(-c3ccc(OCCCS(C)(=O)=O)cc3)cc3ccccc23)CC1 [Example 55, 3-[4-(3-Methylsulfonpropoxy)Phenyl]-1-(4-Ethylpiperazin-1-Yl)Isoquinoline Hydorchloride] | 10.4 nM | 15.3 nM | –
8 | CCN1CCN(c2nc(-c3ccc(OCCn4ccnc4)cc3)cc3ccccc23)CC1 [Example 56, 3-{4-[2-(1-Imidazonyl)Ethoxy]phenyl}-1-(4-Ethylpiperazin-1-Yl)Isoquinoline Hydrochloride] | 37.4 nM | 59.5 nM | –
9 | CCN1CCN(c2nc(-c3ccc(OCCCc4ccncc4)cc3)cc3ccccc23)CC1 [Example 57, 3-{4-[3-(4-Pyridyl)Propoxy]Phenyl}-1-(4-Ethylpiperazin-1-Yl)Isoquinoline Hydrochloride] | 57.2 nM | 4.6 nM | –
10 | CCNC(=O)Oc1ccc(-c2cc3ccccc3c(N3CCN(CC)CC3)n2)cc1 [Example 59] | – | 14.3 nM | 16.3 nM
11 | CCN1CCN(c2nc(-c3ccc(C#N)cc3)cc3ccccc23)CC1 [Example 62, 3-(4-Cyanophenyl)-1-(4-Ethylpiperazin-1-Yl)Isoquinoline Hydrochloride] | 14.8 nM | 4 nM | –
12 | CCN1CCN(c2nc(-c3ccc(C4=CCC(O)CC4)cc3)cc3ccccc23)CC1 (centres unmarked) [Example 64, 3-[4-(4-Hydroxy-1-Cyclohexen-1-Yl)Phenyl]-1-(4-Ethylpiperazin-1-Yl)Isoquinoline Hydrochloride] | 87 nM | 8.5 nM | –
13 | CCN1CCN(c2nc(-c3ccc(N)cc3)cc3ccccc23)CC1 [Example 65, 3-(4-Aminophenyl)-1-(4-Ethylpiperazin-1-Yl)Isoquinoline Hydrochloride] | 60.1 nM | 33.5 nM | –
14 | CCN1CCN(c2nc(-c3ccc(N(C)C)cc3)cc3ccccc23)CC1 [Example 66, 3-[4-(N,N-Dimethylamino)Phenyl]-1-(4-Ethylpiperazin-1-Yl)Isoquinoline Dihydrochloride] | 52.7 nM | 21.6 nM | –
15 | CCN1CCN(c2nc(-c3ccc(NCCO)cc3)cc3ccccc23)CC1 [Example 67, 3-[4-(2-Hydroxyethyl)Aminophenyl]-1-(4-Ethylpiperazin-1-Yl)Isoquinoline Hydrochloride] | 27.3 nM | 6.6 nM | –
16 | CCN1CCN(c2nc(-c3ccc(NC(C)=O)cc3)cc3ccccc23)CC1 [Example 68, 3-(4-Acetamidephenyl)-1-(4-Ethylpiperazin-1-Yl)Isoquinoline Hydrochloride] | 30.9 nM | 94.1 nM | –
17 | CCC(=O)Nc1ccc(-c2cc3ccccc3c(N3CCN(CC)CC3)n2)cc1 [Example 69, 3-(4-Ethylcarbonylaminophenyl)-1-(4-Ethylpiperazin-1-Yl)Isoquinoline Hydrochloride] | 17.2 nM | 17.3 nM | –

Row | SMILES | Ki [1, 3] | Ki [2] | Ki [1]
18 | CCN1CCN(c2nc(-c3ccc(NS(=O)(=O)CC)cc3)cc3ccccc23)CC1 [Example 71, 3-(4-Ethylsulfonylaminophenyl)-1-(4-Ethylpiperazin-1-Yl)Isoquinoline Hydrochloride] | 2 nM | 1.5 nM | –
19 | CCCS(=O)(=O)Nc1ccc(-c2cc3ccccc3c(N3CCN(CC)CC3)n2)cc1 [Example 72, 3-(4-Propylsulfonylaminophenyl)-1-(4-Ethylpiperazin-1-Yl)Isoquinoline Hydrochloride] | 15 nM | 3.6 nM | –
20 | CCN1CCN(c2nc(-c3ccc(S(N)(=O)=O)cc3)cc3ccccc23)CC1 [Example 74, 3-(4-Sulfonamidephenyl)-1-(4-Ethylpiperazin-1-Yl)Isoquinoline Hydrochloride] | 4.6 nM | 7.7 nM | –
21 | CCN1CCN(c2nc(-c3ccc(S(=O)(=O)N4CCOCC4)cc3)cc3ccccc23)CC1 [Example 75, 3-[(4-Morpholinyl)Sulfonylphenyl]-1-(4-Ethylpiperazin-1-Yl)Isoquinoline Hydrochloride] | 7.7 nM | 10 nM | –
22 | CCN1CCN(c2nc(-c3ccc(S(=O)(=O)N4CCSCC4)cc3)cc3ccccc23)CC1 [Example 76, 3-[(4-Thiomorpholinyl)Sulfonylphenyl]-1-(4-Ethylpiperazin-1-Yl)Isoquinoline Hydrochloride] | 5.7 nM | 8.9 nM | –
23 | CCN1CCN(c2nc(-c3ccc(S(=O)(=O)N4CCS(=O)(=O)CC4)cc3)cc3ccccc23)CC1 [Example 77, 3-[(1,1-Dioxythiomorpholinyl)Sulfonylphenyl]-1-(4-Ethylpiperazin-1-Yl)Isoquinoline Hydrochloride] | 13.6 nM | 90.5 nM | –
24 | CCN1CCN(c2nc(-c3ccc(CNS(=O)(=O)CC)cc3)cc3ccccc23)CC1 [Example 78, 3-(4-Ethylsulfonylaminomethylphenyl)-1-(4-Ethylpiperazin-1-Yl)Isoquinoline Hydrochloride] | 0.56 nM | 1.9 nM | –
25 | CCN1CCN(c2nc(-c3ccc(CCNS(=O)(=O)CC)cc3)cc3ccccc23)CC1 [Example 79, 3-(4-Ethylsulfonylaminoethylphenyl)-1-(4-Ethylpiperazin-1-Yl)Isoquinoline Hydrochloride] | 5.8 nM | 23 nM | –
26 | CCNS(=O)(=O)Cc1ccc(-c2cc3ccccc3c(N3CCN(CC)CC3)n2)cc1 [Example 80, 3-(4-Ethylaminosulfonylmethylphenyl)-1-(4-Ethylpiperazin-1-Yl)Isoquinoline Hydrochloride] | 0.8 nM | 16.3 nM | –
27 | CCCNS(=O)(=O)Cc1ccc(-c2cc3ccccc3c(N3CCN(CC)CC3)n2)cc1 [Example 81, 3-(4-Propylaminosulfonylmethylphenyl)-1-(4-Ethylpiperazin-1-Yl)Isoquinoline Hydrochloride] | 1.1 nM | 15.1 nM | –
28 | CCN1CCN(c2nc(-c3ccc(CS(=O)(=O)N(CC)CC)cc3)cc3ccccc23)CC1 [Example 82, 3-[4-(N,N-diethylamino)sulfonylmethylphenyl]-1-(4-ethylpiperazin-1-yl)isoquinoline Hydrochloride] | 0.2 nM | 10.8 nM | –
29 | CCN1CCN(c2nc(-c3ccc(C4CCOCC4)cc3)cc3ccccc23)CC1 [Example 83, 3-[4-(Tetrahydropyran-4-yl)phenyl]-1-(4-ethylpiperazin-1-yl)isoquinoline Hydrochloride] | 75.6 nM | 4.3 nM | –
30 | CCN1CCN(c2nc(-c3ccc(C4=CCOCC4)cc3)cc3ccccc23)CC1 [Example 84, 3-[4-(5,6-Dihydro-2H-pyran-4-yl)phenyl]-1-(4-ethylpiperazin-1-yl)isoquinoline Hydrochloride] | 72.1 nM | 0.9 nM | –
31 | CCC(=O)NCc1ccc(-c2cc3ccccc3c(N3CCN(CC)CC3)n2)cc1 [Example 85, 3-(4-Ethylcarbonylaminomethylphenyl)-1-(4-ethylpiperazin-1-yl)isoquinoline Hydrochloride] | 18.7 nM | 9.7 nM | –
32 | CCCC(=O)NCc1ccc(-c2cc3ccccc3c(N3CCN(CC)CC3)n2)cc1 [Example 86, 3-(4-Propylcarbonylaminomethylphenyl)-1-(4-ethylpiperazin-1-yl)isoquinoline Hydrochloride] | 11.7 nM | 5.3 nM | –
33 | CCNC(=O)Cc1ccc(-c2cc3ccccc3c(N3CCN(CC)CC3)n2)cc1 [Example 87, 3-(4-Ethylaminocarbonylmethylphenyl)-1-(4-ethylpiperazin-1-yl)isoquinoline Hydrochloride] | 16.9 nM | 17 nM | –
34 | CCCNC(=O)Cc1ccc(-c2cc3ccccc3c(N3CCN(CC)CC3)n2)cc1 [Example 88, 3-(4-Propylaminocarbonylmethylphenyl)-1-(4-ethylpiperazin-1-yl)isoquinoline Hydrochloride] | 9.4 nM | 11.7 nM | –
